What is called IC50 is the midpoint of a concentration-inhibition curve. Lower therefore signals greater potency.

The target in the experiment is T1, Neutral cholesterol ester hydrolase 1 (NCEH1) (Homo sapiens, UniProt Q6PIU2).
T1 construct: endogenous full-length enzyme in live PC3 cells
T1 sequence (Q6PIU2 1-408): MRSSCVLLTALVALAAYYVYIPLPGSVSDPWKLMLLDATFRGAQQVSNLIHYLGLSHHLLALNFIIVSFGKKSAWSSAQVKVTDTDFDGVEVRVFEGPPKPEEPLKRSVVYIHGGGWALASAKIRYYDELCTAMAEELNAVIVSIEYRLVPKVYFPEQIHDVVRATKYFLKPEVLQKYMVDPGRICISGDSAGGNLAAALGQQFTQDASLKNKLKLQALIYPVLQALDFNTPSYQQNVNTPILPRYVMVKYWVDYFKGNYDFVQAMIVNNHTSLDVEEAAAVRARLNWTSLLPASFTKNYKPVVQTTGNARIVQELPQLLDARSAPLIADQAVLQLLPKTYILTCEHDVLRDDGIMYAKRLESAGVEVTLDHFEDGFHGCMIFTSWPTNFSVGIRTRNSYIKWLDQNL
Nature of the experiment: competitive activity-dependent proximity ligation (FP-Bio probe) in live cells; gel-based ABPP in SKOV3. It is filed as cell-based.

As to `CC(C)c1ccccc1OC(=O)NCCc1ccc2ccccc2c1` [JW480], the IC50 was found to be 6 nM.

The record behind these values is paper PMC5701173, “An activity-dependent proximity ligation platform for spatially resolved quantification of active enzymes in single cells” (Nature Communications, 2017).
